Assay [1] concerns the target Serine/threonine-protein kinase/endoribonuclease IRE1 (Homo sapiens, UniProt O75460). As to the kind of experiment: Not found.
Excerpt: Not found

Assay [2] addresses Serine/threonine-protein kinase/endoribonuclease IRE2 (Human, UniProt Q76MJ5). Nature of the assay: Not found.
Excerpt: Not found

Chain of Serine/threonine-protein kinase/endoribonuclease IRE1 (O75460 whole entry): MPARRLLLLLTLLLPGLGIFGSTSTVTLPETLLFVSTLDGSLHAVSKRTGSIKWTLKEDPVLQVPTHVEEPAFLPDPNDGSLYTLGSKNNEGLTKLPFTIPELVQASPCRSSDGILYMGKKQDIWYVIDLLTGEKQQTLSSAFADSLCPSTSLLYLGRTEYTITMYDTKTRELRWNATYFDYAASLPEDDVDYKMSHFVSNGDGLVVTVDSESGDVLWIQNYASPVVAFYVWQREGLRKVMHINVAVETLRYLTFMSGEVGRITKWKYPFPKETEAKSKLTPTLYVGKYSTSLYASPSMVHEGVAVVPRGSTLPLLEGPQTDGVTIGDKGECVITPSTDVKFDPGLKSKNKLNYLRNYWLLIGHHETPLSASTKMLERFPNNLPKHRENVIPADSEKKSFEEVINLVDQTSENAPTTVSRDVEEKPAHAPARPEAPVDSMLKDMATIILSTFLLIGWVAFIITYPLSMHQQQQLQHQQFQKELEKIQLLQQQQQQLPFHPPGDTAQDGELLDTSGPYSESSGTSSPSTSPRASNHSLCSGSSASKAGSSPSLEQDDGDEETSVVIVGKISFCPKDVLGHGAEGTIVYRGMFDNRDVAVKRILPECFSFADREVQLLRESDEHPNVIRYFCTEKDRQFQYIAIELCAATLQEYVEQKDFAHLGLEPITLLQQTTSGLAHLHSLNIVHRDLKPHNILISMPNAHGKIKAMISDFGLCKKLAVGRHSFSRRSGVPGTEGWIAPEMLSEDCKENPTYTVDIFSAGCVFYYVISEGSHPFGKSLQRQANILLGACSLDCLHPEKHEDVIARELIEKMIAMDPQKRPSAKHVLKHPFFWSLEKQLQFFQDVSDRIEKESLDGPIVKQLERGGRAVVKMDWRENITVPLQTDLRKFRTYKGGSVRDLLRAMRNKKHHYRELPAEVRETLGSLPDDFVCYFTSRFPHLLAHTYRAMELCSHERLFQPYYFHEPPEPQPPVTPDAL
Chain of Serine/threonine-protein kinase/endoribonuclease IRE2 (Q76MJ5 whole entry): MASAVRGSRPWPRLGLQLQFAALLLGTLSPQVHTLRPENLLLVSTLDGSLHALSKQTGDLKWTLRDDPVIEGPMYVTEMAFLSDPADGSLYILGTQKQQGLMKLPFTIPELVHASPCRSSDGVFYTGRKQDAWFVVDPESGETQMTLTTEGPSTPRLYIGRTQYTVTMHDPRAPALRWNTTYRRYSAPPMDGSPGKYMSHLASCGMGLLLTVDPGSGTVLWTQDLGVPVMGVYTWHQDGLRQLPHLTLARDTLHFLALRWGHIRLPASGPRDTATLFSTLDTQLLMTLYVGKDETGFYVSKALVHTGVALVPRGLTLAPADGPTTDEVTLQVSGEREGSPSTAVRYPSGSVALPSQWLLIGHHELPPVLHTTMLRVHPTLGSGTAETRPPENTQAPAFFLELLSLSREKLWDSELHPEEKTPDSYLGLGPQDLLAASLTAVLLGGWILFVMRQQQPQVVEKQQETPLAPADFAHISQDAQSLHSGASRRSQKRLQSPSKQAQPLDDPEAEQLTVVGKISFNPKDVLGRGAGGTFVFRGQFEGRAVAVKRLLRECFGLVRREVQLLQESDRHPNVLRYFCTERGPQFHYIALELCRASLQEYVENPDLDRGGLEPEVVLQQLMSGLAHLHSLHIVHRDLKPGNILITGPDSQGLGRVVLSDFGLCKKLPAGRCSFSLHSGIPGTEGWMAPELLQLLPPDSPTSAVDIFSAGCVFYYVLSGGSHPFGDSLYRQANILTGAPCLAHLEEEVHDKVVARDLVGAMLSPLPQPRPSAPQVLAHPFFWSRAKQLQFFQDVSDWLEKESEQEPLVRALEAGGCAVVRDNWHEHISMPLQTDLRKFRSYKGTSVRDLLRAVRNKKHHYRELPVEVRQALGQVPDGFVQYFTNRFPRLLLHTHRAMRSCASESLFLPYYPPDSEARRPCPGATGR

Turning to `Cc1ccc(C(=O)NCc2ccccc2Cl)cc1Oc1ncsc1-c1ccnc(N[C@H]2CCCNC2)n1` [US12391669, Compound 20], the IC50 (usually the concentration that gives 50% inhibition) in assay [1] is 0.052 µM; in assay [2], above 10 µM.

On to `c1cc(Cc2nc3ccccc3[nH]2)cc(Oc2ncsc2-c2ccnc(N[C@H]3CCCNC3)n2)c1` [US12391669, Compound 35], for which half-maximal inhibition in assay [1] (IC50) was put at 0.443 µM.

For the origin of these results see BindingDB's records for patent US12391669 (University Of California, 2025).
